The values that follow come from publication PMC3951324, “Side Chain Hydrophobicity Modulates Therapeutic Activity and Membrane Selectivity of Antimicrobial Peptide Mastoparan-X” (PLoS ONE, 2014).

Ends that are not written are not given here.

Data set [1] in a line: Mode of peptide-membrane interaction gauged by ITC. The data set is classed as physicochemical. To be noted: 20 mM POPC∶POPG (3∶1) LUVs (8 mM for OAMPX) injected 38×1 µL into 100 µM peptide, 37°C, triplicates. As for the experimental part:
Lipid stock solutions of POPC and POPG were prepared in chloroform∶methanol (9∶1). Mixtures of POPC∶POPG (3∶1) were prepared and the organic solvent was evaporated under a gentle stream of nitrogen. The lipid films were kept in vacuum (P<0.1 Pa) overnight in order to remove the residual solvent. Buffer containing 10 mM HEPES and 100 mM sodium chloride (pH 7.4) was added to the lipid films, and they were hydrated for 60 min followed by extrusion through 100 nm using an Avanti mini-extruder. Dynamic Light Scattering (DLS, Brookhaven Instrument Corporation, ZetaPALS) was used for measuring the liposome size distribution. The effective lipid concentration was determined by inductively coupled plasma atomic emission spectroscopy (ICP-AES Vista AX, Varian).
The nature of the peptides' membrane interaction was studied as a function of lipid/peptide ratio (L/P) by ITC (iTC200, Microcal). All experiments were conducted by injection of 20 mM LUVs into 100 µM peptide solution. For OAMPX, 8 mM LUVs were used. The experiments were conducted as 38×1 µL injections, T = 37°C, and the speed of the stirrer was 1000 rpms. All titrations were conducted in triplicates.
(In ITC the heat of successive injections is recorded.)

The test system of data set [2] is human red blood cells (RBCs). As to the kind of experiment: Haemolysis assay. It counts as cell-based. An excerpt:
All Fmoc (9H-fluoren-9-yl-methyloxycarbonyl) L-amino acids and HATU (1-[Bis(dimethylamino)methylene]-1H-1,2,3-triazolo[4,5-b]pyridinium 3-oxid hexafluorophosphate, N-[(Dimethylamino)-1H-1,2,3-triazolo-[4,5-b]pyridin-1-ylmethylene]-N-methylmethanaminium hexafluorophosphate N-oxide) were purchased from GLS China (GL Biochem, Shanghai, China). Fmoc-2-amino-decanoic acid was obtained from Watanabe Chemical Industries, Ltd (Hiroshima, Japan). Lys and Trp were side-chain-protected as tert-butoxycarbonyl, Asn was sidechain protected with trityl. Tentagel resin was purchased from NovaBiochem (Merck, Darmstadt, Germany). TFA (trifluoroacetic acid), TIS (triisopropylsilane), HEPES (N-(2-hydroxyethyl)piperazine-N-(2-ethanesulfonic acid)), 2,4,6-collidine and pyrene were purchased from Sigma-Aldrich (Brøndby, Denmark). Pyridine, sodium hydroxide pellets and sodium chloride was purchased from J.T. Baker Chemicals (Phillipsburg, NJ, USA). Filter supports and Hamilton extrusion syringes, POPG (1-palmitoyl-2-oleoyl-sn-glycero-3-[phospho-rac-(1-glycerol)] sodium salt), and POPC (1-palmitoyl-2-oleoyl-sn-glycero-3-phosphocholine) were purchased from Avanti Polar Lipids (Alabaster, AL). All compounds were used without further purification. Membrane filters for extrusion (100 nm pore size, polycarbonate) were purchased from Whatman (Maidstone, UK). Cuvettes (4×10 mm, quartz, Suprasil) were purchased from Hellma (Müllheim, Germany). Purified human erythrocytes for the haemolysis studies were provided by Bioneer (Hørsholm, Denmark), and were stored at 4°C for a maximum of three days before use.
The assay was conducted as described in Etzerodt et al..

In the case of “INWKGIAAMAKKLL-NH2 [MPX, mastoparan X, reference compound]”, in data set [1], the “endpoint of the reversible (secondary) process, lipid/peptide ratio L/P” value was approximately 21. For the same substance, the “% haemolysis” value in data set [2] (human RBCs, 50 µM peptide) stood at 15%. In addition, the “H5, concentration at which 5% haemolysis has been obtained” value in data set [2] (purified human erythrocytes, assay as in Etzerodt et al. [14]) is 18 ± 2 µM.
